Tested on: KK mice (age 4-5 months) with diabetes
Test: Blood sugar lowering effect in KK mice with diabetes
Assay type: in vivo
Details: Mus musculus, po, 72 h, powder diet containing 0.01% of the test compound for 3 days, plasma glucose vs control group, groups of 4 mice, read-out: Blood sugar decrease rate (%)
Description: [Test Example] Blood Sugar Lowering Effect
Blood samples were collected from the caudal vein of KK mice (age 4-5 months) with diabetes followed by measurement of their blood sugar levels. Next, after assigning the mice to groups (of 4 mice each) so that the mean blood sugar levels of each group were the same, mouse laboratory powder diet (F-1, Funabashi Farms), prepared so as to contain 0.01% of the test compound, was given to the mice for 3 days. The groups of mice that were given test compound were designated as the drug dose groups. It should be noted that a group that was given laboratory diet not containing the test compound was designated as the control group. Blood samples were collected from the caudal vein of the mice 3 days later and the glucose concentration of the plasma obtained by centrifugal separation was measured with a glucose analyzer (Glucoloader, A & T Corp.). The mean decrease of blood sugar rate (%) was determined according to the following equation.
Blood sugar decrease rate (%)=(mean blood sugar value of control group−mean blood sugar value […] of drug dose group)×100/(blood sugar value of control group)

| SMILES | inhibition in vivo at 0.01 % in diet [%] |
| --- | --- |
| Cn1c(COc2ccc(CC3SC(=O)NC3=O)cc2)nc2ccc(Oc3ccc4cccc(NC(=O)NCc5ccccc5)c4c3)cc21 (centres unmarked) [Example 45, 1-Benzyl-3-(7-[2-[4-(2,4-dioxothiazolidin-5-ylmethyl)phenoxymethyl]-1-methyl-1H-benzimidazol-6-yloxy]naphthalen-1-yl)urea] | 54.1 |
| Cn1c(COc2ccc(CC3SC(=O)NC3=O)cc2)nc2ccc(Oc3ccc(NS(C)(=O)=O)cc3)cc21 (centres unmarked) [Example 18, N-(4-[2-[4-(2,4-Dioxothiazolidin-5-ylmethyl)phenoxymethyl]-1-methyl-1H-benzimidazol-6-yloxy]phenyl)methanesulfonamide] | 61 |
